Measurements reported in patent publication US9895077B2, “Method for diagnosing a brain related disorder using brain network activity patterns” (Elminda Ltd., priority 2010, dated 2018).

Assays:
Assay type in all cases: in vivo, human
[1] = system: ADHD subjects; assay: BNA pattern similarity from EEG data of ADHD subjects before and following treatment with MPH
Description: The BNA patterns shown in FIGS. 6A-D are associated subject-specific BNA patterns constructed from EEG data recorded from a particular ADHD subject. The black dots in FIGS. 6A-D show the locations of the EEG electrodes. The color codes in these BNA patterns are the same as defined above. The subject-specific BNA patterns shown in FIGS. 6A-B describe the association of the ADHD subject to a group of untreated ADHD subjects, and the BNA patterns shown in FIGS. 6C-D describe the association of the ADHD subject to a group of ADHD subjects all treated with methylphenidate (MPH). The subject-specific BNA patterns shown in FIGS. 6A and 6C are based on EEG data recorded from the ADHD subject before any treatment, and subject-specific BNA patterns shown in FIGS. 6B and 6D are based on EEG data recorded from the ADHD subject following a treatment with MPH.
The baseline annotated BNA pattern constructed from the group of untreated ADHD subjects, and the baseline annotated BNA pattern constructed from the same group of subjects, but following treatment with MPH are shown in FIGS. 6E and 6F, respectively.
A BNA pattern similarity was calculated for each of the subject-specific BNA patterns shown in FIGS. 6A-D. The calculated similarity corresponding to the BNA pattern of FIG. 6A is 0.73, the calculated similarity corresponding to the BNA pattern of FIG. 6B is 0.19, the calculated similarity corresponding to the BNA pattern of FIG. 6C is 0.56, and the calculated similarity corresponding to the BNA pattern of FIG. 6D is 0.6.
The BNA patterns shown in FIGS. 7A-D were constructed from EEG data recorded from a different ADHD subject, which was also treated with MPH according to the same protocol as described above with respect to the responder subject of FIGS. 6A-D. The black dots in FIGS. 7A-D show the locations of the EEG electrodes, and the color codes in these BNA patterns is the same as defined above. Thus, the subject-specific BNA patterns shown in FIGS. 7A-B describe the association of the ADHD subject to a group of untreated ADHD subjects, and the BNA patterns shown in FIGS. 7C-D describe the association of the ADHD subject to a group of ADHD subjects all treated with methylphenidate (MPH). The subject-specific BNA patterns shown in FIGS. 7A and 7C are based on EEG data recorded from the ADHD subject before any treatment, and subject-specific BNA patterns shown in FIGS. 7B and 7D are based on EEG data recorded from the ADHD subject following a treatment with MPH.
A BNA pattern similarity was calculated for each of the subject-specific BNA patterns shown in FIGS. 7A-D. The calculated similarity corresponding to the BNA pattern of FIG. 7A is 0, the calculated similarity corresponding to the BNA pattern of FIG. 7B is 0, the calculated similarity corresponding to the BNA pattern of FIG. 7C is 0.06, and the calculated similarity corresponding to the BNA pattern of FIG. 7D is 0.

[2] = system: healthy volunteer subjects; assay: BNA pattern analysis of EEG data during working memory test (encoding/retrieval), drug vs placebo; conditions: for effect on central and frontal activation in group BNA pattern / effect on fronto-parietal part / connectivity of group BNA pattern: group BNA patterns (FIGS. 10C-D, 10G-H) vs placebo
[3] = system: healthy volunteer subjects; assay: BNA pattern analysis of EEG data during auditory oddball task, scopolamine vs placebo; conditions: for BNA pattern similarity to placebo group baseline BNA pattern: following scopolamine, oddball task
Description: FIGS. 8A-D show associated subject-specific BNA patterns constructed from EEG data recorded from two healthy volunteer subjects. The black dots in FIGS. 8A-D show the locations of the EEG electrodes, and the color codes in these BNA patterns are the same as defined above. The subject-specific BNA patterns shown in FIGS. 8A-D describe the association of the subjects to a group of healthy subjects following treatment with a placebo drug and while performing an attention task related oddball task.
FIGS. 8A and 8C are subject-specific BNA patterns constructed from EEG data collected from a first subject (FIG. 8A) and a second subject (FIG. 8C) following treatment with a placebo, and FIGS. 8B and 8D are subject-specific BNA patterns constructed from EEG data collected from the first subject (FIG. 8B) and the second subject (FIG. 8D) following treatment with a scopolamine drug. Scopolamine is an anticholinergic drug with inhibitory effect on M2-cholinergic receptors of excited type. It has an inhibitory effect on the cerebral cortex, typically inducing slight-anesthetic effect.
All subjects were administered with Scopolamine 0.4 mg, and Saline serving as a placebo drug, on consecutive days, in a randomized order.
In the auditory oddball target detection test, the subjects were requested to respond to auditory target stimuli that occur infrequently and irregularly within a series of standard stimuli. The standard stimulus was in the form of a 1000 Hz tone, and the target stimulus was in the form of a 2000 Hz tone. The intervals between two successive stimuli (standard or target) were 1.5 seconds. Each subject was exposed to a series of stimuli, of which 80% were standard stimuli and 10% were target stimuli. The additional 10% were background sounds (referred to as “novel stimuli”).
All subjects underwent EEG recordings during the tests. ERPs were recorded using 64 Ag—AgCl active electrodes (ActiveTwo, Biosemi) attached to the scalp by located according to the 10-20 international system, and filled with a conducting gel (Signa, Parker).
Two group BNA patterns (one BNA pattern for the placebo group and one BNA pattern for the scopolamine group), and several subject-specific BNA patterns were constructed according to the teachings of the present embodiments as described in Example 1 above. The similarities between the subject-specific BNA pattern and the group BNA patterns were calculated as described in Example 1 above, except for the following provisions on data selection.
Two types of group BNA patterns were constructed in this example. A first type, referred to herein as a DIFF BNA pattern, described the activity that most differentiated between two groups or two conditions. In this type, data features that appeared in at least 11 subjects out of a maximum number of 15 subjects in one group, but a difference threshold (the number of subjects that had the pattern in one group minus the number of subjects that had the pattern in the other group) of 2 subjects, was used to construct the BNA pattern. […] The SI quantities for this type of BNA patterns were calculated as described in Example 1 above.

[4] = system: healthy volunteer subjects; assay: Clinical observation of behavioral endpoint following treatment with scopolamine
Experimental: A BNA pattern similarity was calculated for each of the subject-specific BNA patterns shown in FIGS. 8A-D. The calculated similarities are 0.937, 0.079, 1.0 and 0.94, respectively. It is recognized by the present inventors that these similarity values indicate that the responsivity to scopolamine is high for the first subject (FIGS. 8A and 8B) and low for the second subject (FIGS. 8C and 8D).

Compound: COC(=O)C(c1ccccc1)C1CCCCN1 (stereo not shown) [MPH, methylphenidate]
- responsiveness of the subject to the treatment, as indicated by similarity values ([1]; ADHD subject of FIGS. 6A-D): responsive to the treatment
- BNA pattern similarity to the baseline BNA pattern for the untreated ADHD group ([1]; ADHD subject of FIGS. 6A-D (FIG. 6B), following a single dose treatment with MPH, before treatment 0.73): 0.19
- BNA pattern similarity to the baseline BNA pattern for the treated ADHD group ([1]; ADHD subject of FIGS. 6A-D (FIG. 6D), following a single dose treatment with MPH, before treatment 0.56): 0.6
- responsiveness of the subject to the treatment, as indicated by similarity values ([1]; ADHD subject of FIGS. 7A-D): not responsive to the treatment
- BNA pattern similarity to the group of untreated ADHD subjects ([1]; different ADHD subject of FIGS. 7A-D (FIG. 7B), following treatment with MPH, before treatment 0): 0
- BNA pattern similarity to the group of ADHD subjects treated with MPH ([1]; different ADHD subject of FIGS. 7A-D (FIG. 7D), following treatment with MPH, before treatment 0.06): 0

Compound: CNC1(c2ccccc2Cl)CCCCC1=O (stereo not shown) [ketamine]
- effect on central and frontal activation in group BNA pattern ([2]; working memory test): increased central and frontal activation
- effect on fronto-parietal part / connectivity of group BNA pattern ([2]; working memory test): No significant change
- effect on right lateralization in group BNA pattern ([2]; working memory test, group BNA patterns (FIGS. 10G-H) vs placebo): decreased right lateralization

Compound: CN1[C@@H]2C[C@@H](OC(=O)[C@H](CO)c3ccccc3)C[C@H]1[C@@H]1O[C@@H]12 [scopolamine]
- BNA pattern similarity to placebo group baseline BNA pattern ([3]; first healthy subject (FIG. 8B), after placebo 0.937): 0.079
- responsivity to scopolamine, as indicated by similarity values ([3]; first subject (FIGS. 8A and 8B)): high
- number of scopolamine subjects fulfilling the placebo pattern ([3]; oddball test, detection of novel stimuli, Delta frequency pattern (FIGS. 29A-D), 14 in placebo group): 0 subjects
- number of subjects in the scopolamine group showing the scopolamine pattern (group-subject value) ([3]; oddball test, detection of target stimuli, Beta (12-18 Hz) pattern (FIGS. 28A-C), Scopolamine 0.4 mg, 15 subjects, 1 placebo subject): 12 subjects
- number of scopolamine subjects fulfilling the placebo pattern ([3]; oddball test, detection of target stimuli, Delta frequency pattern (FIGS. 27A-D), Scopolamine 0.4 mg, 15 subjects, 12 in placebo group): 4 subjects
- pattern differentiation level ([3]; placebo pattern, detection of novel stimuli (FIGS. 29A-D), placebo vs scopolamine group): 14
- pattern differentiation level ([3]; placebo pattern, detection of target stimuli (FIGS. 27A-D), placebo vs scopolamine group): 8
- pattern differentiation level ([3]; scopolamine pattern, detection of target stimuli (FIGS. 28A-C), scopolamine vs placebo group): 11
- BNA pattern similarity to placebo group baseline BNA pattern ([3]; second healthy subject (FIG. 8D), after placebo 1.0): 0.94
- responsivity to scopolamine, as indicated by similarity values ([3]; second subject (FIGS. 8C and 8D)): low
- decrease in behavioral endpoint ([4]; first subject): 70%
- change in behavioral endpoint ([4]; second subject): no change
- pattern differentiation level ([2]; encoding placebo DIFF BNA pattern, placebo vs scopolamine group): 11
- pattern differentiation level ([2]; encoding scopolamine DIFF BNA pattern, scopolamine vs placebo group): 10
- pattern differentiation level ([2]; retrieval placebo DIFF BNA pattern, placebo vs scopolamine group): 13
- pattern differentiation level ([2]; retrieval scopolamine DIFF BNA pattern, scopolamine vs placebo group): 14
- number of scopolamine subjects fulfilling the encoding placebo DIFF BNA pattern ([2]; working memory test, encoding process (FIGS. 10A, 32-34), 13 in placebo group): Two
- number of subjects in the scopolamine group showing the encoding scopolamine DIFF BNA pattern (group-subject value) ([2]; working memory test, encoding process (FIGS. 10C, 35A-B), three placebo subjects): 13 subjects
- effect on central and frontal activation in group BNA pattern ([2]; working memory test): extensive compensatory central and frontal activation
- effect on fronto-parietal part / connectivity of group BNA pattern ([2]; working memory test): low connectivity between frontal and parietal regions
- number of scopolamine subjects fulfilling the retrieval placebo DIFF BNA pattern ([2]; working memory test, retrieval process (FIGS. 10B, 30A-C), 14 in placebo group): One
- number of subjects in the scopolamine group showing the retrieval scopolamine DIFF BNA pattern (group-subject value) ([2]; working memory test, retrieval process (FIGS. 10D, 31A-E), one placebo subject): 15 subjects
